# Measured values taken from patent US8242274B2, “Triazolopyridine kinase inhibitors useful for the treatment of degenerative and inflammatory diseases” (Galapagos NV, priority 2008, dated 2012).
# How the values were obtained:
# [1] = Microsomal stability, rat; assay type: in vitro ADME; conditions: rat liver microsomes, 3 μM compound, 37° C.
# Description: (§1) A 10 mM stock solution of compound in DMSO was diluted 1000 fold in a 182 mM phosphate buffer pH 7.4 in a 96 deep well plate (Greiner, Cat no. 780285) and pre-incubated at 37° C.
# (§2) 40 μL of deionised water was added to a well of a polypropylene Matrix 2D barcode labelled storage tube (Thermo Scientific) and pre-incubated at 37° C.
# (§3) A Glucose-6-phosphate-dehydrogenase (G6PDH) working stock solution was prepared in 182 mM phosphate buffer pH7.4 and placed on ice before use. A co-factor containing MgCl2, glucose-6-phosphate and NADP+ was prepared in deionised water and placed on ice before use.
# (§4) A final working solution containing liver microsomes (Xenotech) of a species of interest (human, mouse, rat, dog), previously described G6PDH and co-factors was prepared and this mix was incubated for no longer than 20 minutes at room temperature.
# (§5) 30 μL of the pre-heated compound dilution was added to 40 μL of pre-heated water in the Matrix tubes and 30 μL of the microsomal mix was added. Final reaction concentrations were 3 μM compound, 1 mg microsomes, 0.4 U/mL GDPDH, 3.3 mM MgCl2, 3.3 mM glucose-6-phosphate and 1.3 mM NADP+.
# (§6) To measure percentage remaining of compound at time zero MeOH or ACN was added (1:1) to the well before adding the microsomal mix. The plates were sealed with Matrix Sepra Seals™ (Matrix, Cat. No. 4464) and shaken for a few seconds ensure complete mixing of all components.
# (§7) The samples which were not stopped are incubated at 37° C., 300 rpm and after 1 hour of incubation the reaction was stopped with MeOH or ACN (1:1).
# (§8) After stopping the reaction the samples were mixed and placed on ice for 30 min to precipitate the proteins. The plates were then centrifuged 30 min at 1200 rcf at 4° C. and the supernatant was transferred to a 96 v-bottom PP plate (Greiner, 651201) for analysis on LCMS.
# (§9) These plates were sealed with sealing mats (MA96RD-04S) of www.kinesis.co.uk and samples were measured at room temperature on LCMS (ZQ 1525 from Waters) under optimized conditions using Quanoptimize to determine the appropriate mass of the parent molecule.
# (§10) The samples were analyzed on LCMS with a flow rate of 1 mL/min. Solvent A was 15 mM ammonia and solvent B was methanol or acetonitrile, depending on the stop solution used. The samples were run under positive ion spray on an XBridge C18 […] (2.1×30 mm) column, from Waters.
# (§11) Peak area from the parent compound at time 0 was considered to be 100% remaining. The percentage remaining after 1 hour incubation was calculated from time 0 and was calculated as the percentage remaining. The solubility of the compound in the final test concentration in buffer is inspected by microscope and results are reported.
# (§12) The data on microsomal stability are expressed as a percentage of the total amount of compound remaining after 60 minutes.
# [2] = molecular target: T1, Recombinant human JAK1 catalytic domain (Homo sapiens, UniProt P23458); test: JAK1 inhibition assay; assay type: biochemical; conditions: semi-quantitative score
# T1 construct: Recombinant human JAK1 catalytic domain (amino acids 850-1154; catalog number 08-144); purchased Carna Biosciences 08-144
# Description: Recombinant human JAK1 catalytic domain (amino acids 850-1154; catalog number 08-144) was purchased from Carna Biosciences. 10 ng of JAK1 was incubated with 12.5 μg polyGT substrate (Sigma catalog number P0275) in kinase reaction buffer (15 mM Tris-HCl pH 7.5, 1 mM DTT, 0.01% Tween-20, 10 mM MgCl2, 2 μM non-radioactive ATP, 0.25 μCi 33P-gamma-ATP (GE Healthcare, catalog number AH9968) final concentrations) with or without 5 μL containing test compound or vehicle (DMSO, 1% final concentration), in a total volume of 25 μL, in a polypropylene 96-well plate (Greiner, V-bottom). After 45 min at 30° C., reactions were stopped by adding of 25 μL/well of 150 mM phosphoric acid. All of the terminated kinase reaction was transferred to prewashed (75 mM phosphoric acid) 96 well filter plates (Perkin Elmer catalog number 6005177) using a cell harvester (Perkin Elmer). Plates were washed 6 times with 300 μL per well of a 75 mM phosphoric acid solution and the bottom of the plates was sealed. 40 μL/well of Microscint-20 was added, the top of the plates was sealed and readout was performed using the Topcount (Perkin Elmer). Kinase activity was calculated by subtracting counts per minute (cpm) obtained in the presence of a positive control inhibitor (10 μM staurosporine) from cpm obtained in the presence of vehicle. The ability of a test compound to inhibit this activity was determined as: Percentage inhibition=((cpm determined for sample with test compound present−cpm determined for sample with positive control inhibitor)divided by(cpm determined in the presence of vehicle−cpm determined for sample with positive control inhibitor))*100%.
# (§13) Dose dilution series were prepared for the compounds enabling the testing of dose-response effects in the JAK1 assay and the calculation of the IC50 for each compound. Each compound was routinely tested at concentration of 20 μM followed by a 1/3 serial dilution, 8 points (20 μM-6.67 μM-2.22 μM-740 nM-247 nM-82 nM-27 nM-9 nM) in a final concentration of 1% DMSO.
# [3] = molecular target: T2, Recombinant human JAK2 catalytic domain (Homo sapiens, UniProt O60674); test: JAK2 inhibition assay; assay type: biochemical; conditions: semi-quantitative score
# T2 construct: Recombinant human JAK2 catalytic domain (amino acids 808-1132; catalog number PV4210); purchased Invitrogen PV4210
# Description: Recombinant human JAK2 catalytic domain (amino acids 808-1132; catalog number PV4210) was purchased from Invitrogen. 0.025 mU of JAK2 was incubated with 2.5 μg polyGT substrate (Sigma catalog number P0275) in kinase reaction buffer (5 mM MOPS pH 7.5, 9 mM MgAc, 0.3 mM EDTA, 0.06% Brij and 0.6 mM DTT, 1 μM non-radioactive ATP, 0.25 μCi 33P-gamma-ATP (GE Healthcare, catalog number AH9968) final concentrations) with or without 5 μL containing test compound or vehicle (DMSO, 1% final concentration), in a total volume of 25 μL, in a polypropylene 96-well plate (Greiner, V-bottom). After 90 min at 30° C., reactions were stopped by adding of 25 μL/well of 150 mM phosphoric acid. All of the terminated kinase reaction was transferred to prewashed (75 mM phosphoric acid) 96 well filter plates (Perkin Elmer catalog number 6005177) using a cell harvester (Perkin Elmer). Plates were washed 6 times with 300 μL per well of a 75 mM phosphoric acid solution and the bottom of the plates was sealed. 40 μL/well of Microscint-20 was added, the top of the plates was sealed and readout was performed using the Topcount (Perkin Elmer). Kinase activity was calculated by subtracting counts per minute (cpm) obtained in the presence of a positive control inhibitor (10 μM staurosporine) from cpm obtained in the presence of vehicle. The ability of a test compound to inhibit this activity was determined as: Percentage inhibition=((cpm determined for sample with test compound present−cpm determined for sample with positive control inhibitor) divided by (cpm determined in the presence of vehicle−cpm determined for sample with positive control inhibitor))*100%.
# as §13, with “JAK2” for “JAK1”
# [4] = Microsomal stability, human; assay type: in vitro ADME; conditions: human liver microsomes, 3 μM compound, 37° C.
# Description: as §1, §2, §3, §4, §5, §6, §7, §8, §9, §10, §11, §12
# [5] = tested on: TNF release; test: Septic shock model (LPS); assay type: in vivo, mice; conditions: 3 mg/kg
# Description: Injection of lipopolysaccharide (LPS) induces a rapid release of soluble tumour necrosis factor (TNF-alpha) into the periphery. This model is used to analyse prospective blockers of TNF release in vivo.
# Six BALB/cJ female mice (20 g) per group were treated at the intended dosing once, po. Thirty minutes later, LPS (15 μg/kg; E. Coli serotype 0111:B4) was injected ip. Ninety minutes later, mice were euthanized and blood was collected. Circulating TNF alpha levels were determined using commercially available ELISA kits. Dexamethasone (5 μg/kg) was used as a reference anti-inflammatory compound. Selected compounds are tested at one or multiple doses, e.g. 3 and/or 10 and/or 30 mg/kg, po.
# [6] = tested on: MMP13; test: OSM/IL-1β signaling assay (SW1353 cells); assay type: cell-based; conditions: Homo sapiens, 25 ng/mL OSM and 1 ng/mL IL-1β, 48 hours
# Description: The cells were seeded in 96 well plates at 15,000 cells/well in a volume of 120 μL DMEM (Invitrogen) containing 10% (v/v) FBS and 1% penicillin/streptomycin (InVitrogen) incubated at 37° C. 5% CO2. Cells were preincubated with 15 μL compound in M199 medium with 2% DMSO 1 hr before triggering with 15 μL OSM and IL-1β to reach 25 ng/mL OSM and 1 ng/mL IL-1β, and MMP13 levels were measured in conditioned medium 48 hours after triggering. MMP13 activity was measured using an antibody capture activity assay. For this purpose, 384 well plates (NUNC, 460518, MaxiSorb black) were coated with 35 μL of a 1.5 μg/mL anti-human MMP13 antibody (R&D Systems, MAB511) solution for 24 hours at 4° C. After washing the wells 2 times with PBS+0.05% Tween, the remaining binding sites were blocked with 100 μL 5% non-fat dry milk (Santa Cruz, sc-2325, Blotto) in PBS for 24 hours at 4° C. […] Next the wells were washed twice with PBS+0.05% Tween followed by MMP13 activation by addition of 35 μL of a 1.5 mM 4-Aminophenylmercuric acetate (APMA) (Sigma, A9563) solution and incubation at 37° C. for 1 hour. […] After incubation for 24 hours at 37° C. fluorescence of the converted substrate was measured in a Perkin Elmer Wallac EnVision 2102 Multilabel Reader (wavelength excitation: 320 nm, wavelength emission: 405 nm).
# [7] = Caco2 permeability, bi-directional; assay type: in vitro ADME; conditions: human, Caco-2; 10 μM, 1 hour, pH 7.4
# Description: Bi-directional Caco-2 assays were performed as described below. Caco-2 cells were obtained from European Collection of Cell Cultures (ECACC, cat 86010202) and used after a 21 day cell culture in 24-well Transwell plates (Fisher TKT-545-020B).
# 2×10^5 cells/well were seeded in plating medium consisting of DMEM+GlutaMAXI+1% NEAA+10% FBS (FetalClone II)+1% Pen/Strep. The medium was changed every 2-3 days.
# Test and reference compounds (propranolol and rhodamine 123 or vinblastine, all purchased from Sigma) were prepared in Hanks' Balanced Salt Solution containing 25 mM HEPES (pH 7.4) and added to either the apical (125 μL) or basolateral (600 μL) chambers of the Transwell plate assembly at a concentration of 10 μM with a final DMSO concentration of 0.25%.
# 50 μM Lucifer Yellow (Sigma) was added to the donor buffer in all wells to assess integrity of the cell layers by monitoring Lucifer Yellow permeation. As Lucifer Yellow (LY) cannot freely permeate lipophilic barriers, a high degree of LY transport indicates poor integrity of the cell layer.
# After a 1 hour incubation at 37° C. while shaking at an orbital shaker at 150 rpm, 70 μL aliquots were taken from both apical (A) and basal (B) chambers and added to 100 μLl 50:50 acetonitrile:water solution containing analytical internal standard (0.5 μM carbamazepine) in a 96 well plate.
# Lucifer yellow was measured with a Spectramax Gemini XS (Ex 426 nm and Em 538 nm) in a clean 96 well plate containing 150 μL of liquid from basolateral and apical side.
# Concentrations of compound in the samples were measured by high performance liquid-chromatography/mass spectroscopy (LC-MS/MS).
# The Efflux ratios, as an indication of active efflux from the apical cell surface, were calculated using the ratio of PappB>A/PappA>B.
# T2 sequence (O60674 808-1132): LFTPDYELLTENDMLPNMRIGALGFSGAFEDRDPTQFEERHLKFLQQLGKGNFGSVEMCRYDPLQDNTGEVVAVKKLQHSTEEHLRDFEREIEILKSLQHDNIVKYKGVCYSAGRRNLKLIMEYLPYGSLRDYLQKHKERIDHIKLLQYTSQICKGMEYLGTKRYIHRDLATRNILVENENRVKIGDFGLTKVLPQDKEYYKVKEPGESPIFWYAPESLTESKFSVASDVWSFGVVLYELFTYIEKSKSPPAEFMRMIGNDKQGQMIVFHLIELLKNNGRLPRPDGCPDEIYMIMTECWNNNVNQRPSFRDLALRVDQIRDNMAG
# T1 sequence (P23458 850-1154): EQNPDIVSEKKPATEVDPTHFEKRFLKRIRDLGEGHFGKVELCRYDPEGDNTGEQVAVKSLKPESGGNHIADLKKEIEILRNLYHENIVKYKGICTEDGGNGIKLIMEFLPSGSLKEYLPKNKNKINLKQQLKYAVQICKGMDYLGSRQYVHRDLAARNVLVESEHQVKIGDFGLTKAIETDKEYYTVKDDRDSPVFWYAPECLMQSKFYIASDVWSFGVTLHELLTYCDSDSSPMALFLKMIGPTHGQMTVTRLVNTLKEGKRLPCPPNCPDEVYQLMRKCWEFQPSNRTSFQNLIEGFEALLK
Compound,"Microsomal stability Rat (%), compound remaining after 60 minutes [1] [%]",IC50 [2] [nM],IC50 [3] [nM],"Microsomal stability Human (%), compound remaining after 60 minutes [4] [%]",activity in the septic shock model [5],EC50 [6] [nM],"Papp A→B at 1 h, 10 μM [7] [×10⁻⁶ cm/s]"
"O=C(Nc1nc2cccc(-c3ccc(OCc4ccc(Cl)nc4)cc3)n2n1)C1CC1 [Compound 198, Cyclopropanecarboxylic acid {5-[4-(6-chloro-pyridin-3-ylmethoxy)-phenyl]-[1,2,4]triazolo[1,5-a]pyridin-2-yl}-amide]",72.45,0.1 to 100,1 to 100,65.8,,,
COC(=O)c1ccc(COc2ccc(-c3cccc4nc(NC(=O)C5CC5)nn34)cc2)nc1 [Compound 190],25.64,0.1 to 100,,2.13,,,
"Cc1ccc(COc2ccc(-c3cccc4nc(NC(=O)C5CC5)nn34)cc2)cn1 [Compound 197, Cyclopropanecarboxylic acid {5-[4-(6-methyl-pyridin-3-ylmethoxy)-phenyl]-[1,2,4]triazolo[1,5-a]pyridin-2-yl}-amide]",59.41,0.1 to 100,1 to 100,46.6,active,,
"O=C(Nc1nc2cccc(-c3cccc(OCc4ccccc4)c3)n2n1)C1CC1 [Compound 14, N-(5-(3-(benzyloxy)phenyl)-[1,2,4]triazolo[1,5-a]pyridin-2-yl)cyclopropanecarboxamide]",,,> 501,,,,
"NC(=O)c1ccc(COc2ccc(-c3cccc4nc(NC(=O)C5CC5)nn34)cc2)cn1 [Compound 192, 5-{4-[2-(Cyclopropanecarbonyl-amino)-[1,2,4]triazolo[1,5-a]pyridin-5-yl]-phenoxymethyl}-pyridine-2-carboxylic acid amide]",77.62,0.1 to 100,,127.2,,> 1000,12.5
"O=C(Nc1nc2cccc(-c3ccc(NCc4cccnc4)cc3)n2n1)C1CC1 [Compound 182, N-(5-(4-(pyridin-3-ylmethylamino)phenyl)-[1,2,4]triazolo[1,5-a]pyridin-2-yl)cyclopropanecarboxamide]",19.23,0.1 to 100,,19.33,,,
"O=C(Nc1nc2cccc(-c3ccc(OCc4ccccc4)c(F)c3)n2n1)C1CC1 [Compound 15, N-(5-(4-(benzyloxy)-3-fluorophenyl)-[1,2,4]triazolo[1,5-a]pyridin-2-yl)cyclopropanecarboxamide]",14,0.1 to 100,,43,,,25.8
"O=C(Nc1nc2cccc(-c3ccc(OCc4ccc(N5CCCC5)nc4)cc3)n2n1)C1CC1 [Compound 174, N-(5-(4-((6-(pyrrolidin-1-yl)pyridin-3-yl)methoxy)phenyl)-[1,2,4]triazolo[1,5-a]pyridin-2-yl)cyclopropanecarboxamide]",,> 501,,,,,
"CC(=O)Nc1nc2cccc(-c3ccc(OCc4ccccc4)cc3)n2n1 [Compound 163, N-(5-(4-(benzyloxy)phenyl)-[1,2,4]triazolo[1,5-a]pyridin-2-yl)acetamide]",39.78,0.1 to 100,,53.64,,,13.4
